Measured values from patent US8304393B2, “Epithelial cell growth promoter” (Patent Technology Development Inc., priority 2004, dated 2012).

Columns and labels:
human hair papilla cells = experiment: Hair papilla cell growth test (Example 7, AlamarBlue); format: cell-based; details: 0.3-100 μM, 3 days culture
Source text: (§1) To confirm the cell selectivity of the oligopeptide obtained in Example 3 as an epithelial cell growth promoter, the presence or absence of the cell growth-promoting effect on cells existing in skin tissues, that is, HBKs, epidermal cells, dermal fibroblasts, and hair papilla cells, was examined in the following manner. Incidentally, the same culture medium and test medium as in Example 5 were used.
Moreover, human hair papilla cells (product code “602-05”, a product by TOYOBO CO.) were dispersed in a culture medium, then inoculated into a collagen-coated 96-well microplate, and cultured at 37° C. in an atmosphere containing 5% CO2.
A 1 mg portion of the pentapeptide obtained in Example 3 was added to 232.8 μl of a test medium and dissolved by stirring to prepare a 10 mM solution. Subsequently, this 10 mM solution was stepwise diluted to prepare 6 types of sample solutions each in a concentration of 100 μM (No. 1), 30 μM (No. 2), 10 μM (No. 3), 3 μM (No. 4), 1 (No. 5), and 0.3 μM (No. 6). […]
(§2) After 24 hours from the inoculation of the cells, the culture solutions were removed, and the cultured cells were washed with a DMEM solution. […] After 2 hours, fluorescence intensity (excitation wavelength: 544 nm, measurement wavelength: 590 nm) was measured with a microplate reader (Model “Fluoroskan Ascent FL”, manufactured by Labsystems) to evaluate the number of cells.

epidermal cells = experiment: Epidermal cell growth test (Example 7, AlamarBlue); format: cell-based, C3H/HeN mouse; details: for effect on the epidermal cells as compared with that of the control: 4 days culture
Source text: as §1
(§3) The skin of a 5 day-old C3H/HeN mouse was aseptically collected and cut with a surgical knife into samples of strips of approximately 2-mm-wide skin slices. The above-mentioned samples were immersed in a solution prepared by dissolving 500 U/ml of dispase (lot No. 0101, a product by GODO SHUSEI CO.) in DMEM (product code “D-5523”, a product by Sigma) containing 5% by mass of FBS (lot No. 0101, a product by Cansera International Inc.), and then kept standing at 4° C. for 16 hours. Subsequently, epidermis tissues were ablated with tweezers from the skin slices and separated from dermis tissues. The thus obtained epidermis tissues were subjected to the separation of epidermal cells, and the dermis tissues were subjected to the separation of HBKs and dermal fibroblasts.
The above-mentioned epidermis tissues were immersed in a solution prepared by dissolving 0.25% by mass of trypsin in 2.65 mM aqueous EDTA solution, and then treated at 37° C. for 5 minutes to prepare a dispersion solution of epidermal cells.
(§4) Subsequently, this dispersion solution was centrifuged at 1000 rpm for 5 minutes, and the supernatant was removed. The thus obtained epidermal cells were dispersed in a culture medium, then inoculated into a collagen-coated 96-well microplate, and cultured at 37° C. in an atmosphere containing 5% CO2.
(§5) A 1 mg portion of the pentapeptide obtained in Example 3 was added to 232.8 μl of a test medium and dissolved by stirring to prepare a 10 mM solution. Subsequently, this 10 mM solution was stepwise diluted to prepare 6 types of sample solutions each in a concentration of 100 μM (No. 1), 30 μM (No. 2), 10 μM (No. 3), 3 μM (No. 4), 1 (No. 5), and 0.3 μM (No. 6). Only a test medium was used as a control.
(§6) After 24 hours from the inoculation of the cells, the culture solutions were removed, and the cultured cells were washed with an MCDB153 solution. Each of the above mentioned sample solutions was added to the cultured cell at 100 μl/well and cultured at 37° C. in an atmosphere containing 5% CO2. After 4 days, AlamarBlue reagent (registered trademark, cat. No. DAL1100, lot No. AB083002, a product by Biosource International Inc.) was added at 10 μl/well, and the culture was continued at 37° C. in an atmosphere containing 5% CO2. After 2 hours, fluorescence intensity (excitation wavelength: 544 nm, measurement wavelength: 590 nm) was measured with a microplate reader (Model “Fluoroskan Ascent FL”, manufactured by Labsystems) to evaluate the number of cells. A significant difference test was performed by Dunnett's multiple comparison test (software “Super ANOVA V.1.11”, a product by Abacus Concepts).

C3H/He female mice = experiment: Hair regrowth on shaved dorsal skin of telogen-phase mice (Example 6); format: in vivo; details: 1 mg/ml, 100 μl/mouse once a day topical, 14th day after application
Method: A 1 mg portion of the pentapeptide obtained in Example 3 was dissolved in 300 μl of water for injection (product code “057-00456”, a product by Otsuka Pharmaceutical Co.), to which 200 μl of propylene glycol (product code “161-05006”, a product by Wako Pure Chemical Industries) and 500 μl of ethyl alcohol (product code “057-00456”, a product by Wako Pure Chemical Industries) were then added and they were mixed together to prepare an epithelial cell growth promoter in a concentration of 1 mg/ml.
Ten 7-week-old C3H/He female mice were raised for acclimatization for 1 week, and the hair on the dorsal of each mouse in the telogen phase of a hair cycle was shaved with an electric clipper and an electric shaver to prepare experimental animals.
Next, these experimental animals were divided into two groups each containing five mice. The epithelial cell growth promoter was applied at 100 μl/mouse once a day to the shaved area of the first group from the 3rd day after shaving on, while only a mixture of water for injection, propylene glycol, and ethyl alcohol (3:2:5 by volume) was applied as a control to the second group.
Next, these images were computer-processed to calculate with image analysis software the ratio of the hair-regrowth area (the number of pixels of hair-regrowth area/the number of pixels of shaved area) as percentages. […]

HBKs = experiment: HBK growth test (Example 7, AlamarBlue); format: cell-based, C3H/HeN mouse; details: for effect on the HBK growth as compared with that of the control: 4 days culture
Source text: as §1, §3
The thus obtained dermis tissues were immersed in PBS (−) (product code “P-4417”, a product by Sigma) and cut into strips with opthalmological scissors. The strips were immersed into a solution prepared by dissolving 0.2% by mass of collagenase (lot No. 001014W, a product by Nitta Gelatin Inc.) in DMEM containing 5% by mass of FBS, and then digested at 37° C. for 1 hour. The thus obtained dermis digestion solution was centrifuged at 1000 rpm for 5 minutes. The supernatant was removed, and the residue was supplemented with PBS (−) and gently pipetted to prepare a dermis suspension.
For separating dermal fibroblasts and hair bulbs, this dermis suspension was kept standing for 15 minutes to precipitate only the hair bulbs. The “standing to precipitation” procedure was repeated three times. The thus obtained hair bulbs were immersed in a solution preparing by dissolving 0.25% by mass of trypsin in 2.65 mM aqueous EDTA solution, and then treated at 37° C. for 5 minutes to prepare a dispersion solution of HBKs.
as §4, with “Next,” for “Subsequently,”, “minutes. After this centrifugation,” for “minutes, and”, “HBKs” for “epidermal cells”
as §5, §6

dermal fibroblasts = experiment: Dermal fibroblast growth test (Example 7, AlamarBlue); format: cell-based, C3H/HeN mouse; details: 0.3-100 μM, 3 days culture
Source text: as §1
The skin of a 5 day-old C3H/HeN mouse was aseptically collected and cut with a surgical knife into samples of strips of approximately 2-mm-wide skin slices. The above-mentioned samples were immersed in a solution prepared by dissolving 500 U/ml of dispase (lot No. 0101, a product by GODO SHUSEI CO.) in DMEM (product code “D-5523”, a product by Sigma) containing 5% by mass of FBS (lot No. 0101, a product by Cansera International Inc.), and then kept standing at 4° C. for 16 hours. Subsequently, epidermis tissues were ablated with tweezers from the skin slices and separated from dermis tissues. […]
as §2

With `CC[C@H](C)[C@H](NC(=O)[C@@H]1CCCN1C(=O)CN)C(=O)NCC(=O)N[C@@H](CO)C(=O)O` (racemic) [Example 3, glycyl-prolyl-isoleucyl-glycyl-serine] the “influence on hair papilla cell growth” value (human hair papilla cells) was “no influence”, the “effect on the epidermal cells as compared with that of the control” value (epidermal cells; 0.3 μM (No. 6)) was 102% and the “effect on the epidermal cells as compared with that of the control” value (epidermal cells; 1 μM (No. 5)) was 110%. For the same molecule, the “effect on the epidermal cells as compared with that of the control” value (epidermal cells; 3 μM (No. 4)) was 118%, the “effect on the epidermal cells as compared with that of the control” value (epidermal cells; 10 μM (No. 3)) was 124% and the “effect on the epidermal cells as compared with that of the control” value (epidermal cells; 30 μM (No. 2)) was 127%. The “effect on the epidermal cells as compared with that of the control” value (epidermal cells; 100 μM (No. 1)) was 127%, the “concentration at which significant difference from control could be noted” value (epidermal cells; epidermal cells, 1 μM: p<0.05, 3 μM or higher: p<0.01) was at least 1 µM and the “hair growth promotion observed in pictures of the shaved areas” value (C3H/He female mice; compared with control group) was “evident hair growth promotion”. The “ratio of the hair-regrowth area” value (C3H/He female mice; n=5, control 36.9±5.7%, p<0.01) was 66.6±3.5%, the “effect on the HBK growth as compared with that of the control” value (HBKs; 0.3 μM (No. 6)) was 101% and the “effect on the HBK growth as compared with that of the control” value (HBKs; 1 μM (No. 5)) was 111%. For the same molecule, the “effect on the HBK growth as compared with that of the control” value (HBKs; 3 μM (No. 4)) was 124%, the “effect on the HBK growth as compared with that of the control” value (HBKs; 10 μM (No. 3)) was 141% and the “effect on the HBK growth as compared with that of the control” value (HBKs; 30 μM (No. 2)) was 142%. For the same molecule, the “effect on the HBK growth as compared with that of the control” value (HBKs; 100 μM (No. 1)) was 141%, the “concentration at which significant difference from control could be noted” value (HBKs; HBKs, p<0.01, Dunnett's test) was at least 1 µM and the “influence on dermal fibroblast growth” value (dermal fibroblasts) was “no influence”.
